Measured values reported in PMC12608155, “Discovery of Potential Antileishmanial Compounds Through Phenotypic Screening of an Alkaloid Library” (Molecules, 2025).
Like-named read-outs stand apart in the source and are kept apart here.

Test system: L. donovani IRFP axenic amastigotes
Assay: Primary single-concentration screening on axenic amastigotes, growth inhibition at 72 h
Format: cell-based, Leishmania donovani
Conditions: axenic amastigotes; for Growth Inhibition (%) at 72h, 1 µM_Exp1 / Growth Inhibition (%) at 72h, 1 µM_Exp2 / inhibition at 1 µM: 1 µM; for Growth Inhibition (%) at 72h, 10 µM_Exp1 / Growth Inhibition (%) at 72h, 10 µM_Exp2 / inhibition at 10 µM: 10 µM; for inhibition at 1 µM / inhibition at 10 µM: Leishmania donovani
[1] = experiment 1, 72 h, read-out: Growth Inhibition (%) at 72h, 1 µM_Exp1
[2] = experiment 2, 72 h, read-out: Growth Inhibition (%) at 72h, 1 µM_Exp2
[3] = experiment 1, 72 h, read-out: Growth Inhibition (%) at 72h, 10 µM_Exp1
[4] = experiment 2, 72 h, read-out: Growth Inhibition (%) at 72h, 10 µM_Exp2

CN1c2ccccc2C(=O)N2CCc3c([nH]c4ccccc34)[C@@H]21 (racemic) [(±)-Evodiamine]
Growth Inhibition (%) at 72h, 1 µM_Exp1 (experiment 1, 72 h): 64.72% | Growth Inhibition (%) at 72h, 1 µM_Exp2 (experiment 2, 72 h): 40.81% | Growth Inhibition (%) at 72h, 10 µM_Exp1 (experiment 1, 72 h): 100.52% | Growth Inhibition (%) at 72h, 10 µM_Exp2 (experiment 2, 72 h): 97.39%

c1ccc2c(Cc3[nH]c4ccccc4c3Cc3c[nH]c4ccccc34)c[nH]c2c1 [2,3-Bis(3-indolylmethyl) indole]
inhibition at 1 µM [1]: -5.15% | inhibition at 1 µM [2]: 13.6% | inhibition at 10 µM [3]: 101% | inhibition at 10 µM [4]: 100%

c1ccc2c(Cc3c[nH]c4ccccc34)c[nH]c2c1 [3,3'-Diindolylmethane]
inhibition at 1 µM [1]: -59.5% | inhibition at 1 µM [2]: -44.6% | inhibition at 10 µM [3]: 100% | inhibition at 10 µM [4]: 95.7%

O=C(O)Cc1c[nH]c2ccccc12 [3-Indoleacetic acid]
inhibition at 1 µM [1]: -25.4% | inhibition at 1 µM [2]: -9.83% | inhibition at 10 µM [3]: 102% | inhibition at 10 µM [4]: 101%

CCc1c2c(nc3ccccc13)-c1cc3c(c(=O)n1C2)COC(=O)[C@]3(O)CC [7-Ethylcamptothecin]
Growth Inhibition (%) at 72h, 1 µM_Exp1 (experiment 1, 72 h): 70.44% | Growth Inhibition (%) at 72h, 1 µM_Exp2 (experiment 2, 72 h): 77.88% | Growth Inhibition (%) at 72h, 10 µM_Exp1 (experiment 1, 72 h): 96.57% | Growth Inhibition (%) at 72h, 10 µM_Exp2 (experiment 2, 72 h): 91.90%

CC[C@@]1(O)C(=O)OCc2c1cc1n(c2=O)Cc2cc3c(N)cccc3nc2-1 [9-Aminocamptothecin]
inhibition at 1 µM [1]: -3.99% | inhibition at 1 µM [2]: 62% | inhibition at 10 µM [3]: 74.7% | inhibition at 10 µM [4]: 89.1%

CC[C@@]1(O)C(=O)OCc2c1cc1n(c2=O)Cc2cc3c(OC)cccc3nc2-1 [9-Methoxycamptothecin]
Growth Inhibition (%) at 72h, 1 µM_Exp1 (experiment 1, 72 h): 64.49% | Growth Inhibition (%) at 72h, 1 µM_Exp2 (experiment 2, 72 h): 73.97% | Growth Inhibition (%) at 72h, 10 µM_Exp1 (experiment 1, 72 h): 96.02% | Growth Inhibition (%) at 72h, 10 µM_Exp2 (experiment 2, 72 h): 94.80%

CC[C@@]1(O)C(=O)OCc2c1cc1n(c2=O)Cc2cc3cc(OC)ccc3nc2-1 [10-Methoxycamptothecin]
Growth Inhibition (%) at 72h, 1 µM_Exp1 (experiment 1, 72 h): 73.40% | Growth Inhibition (%) at 72h, 1 µM_Exp2 (experiment 2, 72 h): 85.61% | Growth Inhibition (%) at 72h, 10 µM_Exp1 (experiment 1, 72 h): 97.42% | Growth Inhibition (%) at 72h, 10 µM_Exp2 (experiment 2, 72 h): 93.76%

CCc1ccc(O)c2cc3c(nc12)-c1cc2c(c(=O)n1C3)COC(=O)[C@]2(O)CC [12-Ethyl-9-hydroxycamptothecin]
Growth Inhibition (%) at 72h, 1 µM_Exp1 (experiment 1, 72 h): 22.17% | Growth Inhibition (%) at 72h, 1 µM_Exp2 (experiment 2, 72 h): 56.54% | Growth Inhibition (%) at 72h, 10 µM_Exp1 (experiment 1, 72 h): 70.30% | Growth Inhibition (%) at 72h, 10 µM_Exp2 (experiment 2, 72 h): 62.49%

CC(C)=CC[C@H](O)C1=CC(=O)c2c(O)ccc(O)c2C1=O [(-)-Alkannin]
Growth Inhibition (%) at 72h, 1 µM_Exp1 (experiment 1, 72 h): 100.44% | Growth Inhibition (%) at 72h, 1 µM_Exp2 (experiment 2, 72 h): 100.08% | Growth Inhibition (%) at 72h, 10 µM_Exp1 (experiment 1, 72 h): 99.90% | Growth Inhibition (%) at 72h, 10 µM_Exp2 (experiment 2, 72 h): 99.93%

Br.CN1[C@H]2C[C@H](OC(=O)[C@H](CO)c3ccccc3)C[C@@H]1[C@@H](O)C2 [Anisodamine (hydrobromide)]
Growth Inhibition (%) at 72h, 1 µM_Exp1 (experiment 1, 72 h): -15.73% | Growth Inhibition (%) at 72h, 1 µM_Exp2 (experiment 2, 72 h): 4.55% | Growth Inhibition (%) at 72h, 10 µM_Exp1 (experiment 1, 72 h): 80.63% | Growth Inhibition (%) at 72h, 10 µM_Exp2 (experiment 2, 72 h): 11.58%

COc1ccc2cc3[n+](cc2c1OC)CCc1cc2c(cc1-3)OCO2.O.[Cl-] [Berberine (chloride hydrate)]
Growth Inhibition (%) at 72h, 1 µM_Exp1 (experiment 1, 72 h): 29.91% | Growth Inhibition (%) at 72h, 1 µM_Exp2 (experiment 2, 72 h): 24.54% | Growth Inhibition (%) at 72h, 10 µM_Exp1 (experiment 1, 72 h): 98.55% | Growth Inhibition (%) at 72h, 10 µM_Exp2 (experiment 2, 72 h): 99.87%

COc1ccc2cc3[n+](cc2c1OC)CCc1cc2c(cc1-3)OCO2.[Cl-] [Berberine (chloride)]
Growth Inhibition (%) at 72h, 1 µM_Exp1 (experiment 1, 72 h): 16.68% | Growth Inhibition (%) at 72h, 1 µM_Exp2 (experiment 2, 72 h): 6.56% | Growth Inhibition (%) at 72h, 10 µM_Exp1 (experiment 1, 72 h): 99.29% | Growth Inhibition (%) at 72h, 10 µM_Exp2 (experiment 2, 72 h): 97.39%

COc1ccc2cc3[n+](cc2c1OC)CCc1cc2c(cc1-3)OCO2.O=S(=O)([O-])O [Berberine (sulfate)]
Growth Inhibition (%) at 72h, 1 µM_Exp1 (experiment 1, 72 h): 19.57% | Growth Inhibition (%) at 72h, 1 µM_Exp2 (experiment 2, 72 h): -24.39% | Growth Inhibition (%) at 72h, 10 µM_Exp1 (experiment 1, 72 h): 70.74% | Growth Inhibition (%) at 72h, 10 µM_Exp2 (experiment 2, 72 h): 94.59%

CC[C@@]1(O)C(=O)OCc2c1cc1n(c2=O)Cc2cc3ccccc3nc2-1 [Camptothecin]
inhibition at 1 µM [1]: 66.4% | inhibition at 1 µM [2]: 89.3% | inhibition at 10 µM [3]: 91% | inhibition at 10 µM [4]: 95.9%

CC[C@H]1CN2CCc3cc(OC)c(OC)cc3[C@@H]2C[C@@H]1C[C@H]1NCCc2cc(O)c(OC)cc21.Cl.Cl [Cephaeline (dihydrochloride)]
Growth Inhibition (%) at 72h, 1 µM_Exp1 (experiment 1, 72 h): -15.97% | Growth Inhibition (%) at 72h, 1 µM_Exp2 (experiment 2, 72 h): -74.54% | Growth Inhibition (%) at 72h, 10 µM_Exp1 (experiment 1, 72 h): 96.96% | Growth Inhibition (%) at 72h, 10 µM_Exp2 (experiment 2, 72 h): 92.99%

O=S(=O)([O-])O.c1c2c(cc3c1OCO3)-c1cc3ccc4c(c3c[n+]1CC2)OCO4 [Coptisine (Sulfate)]
Growth Inhibition (%) at 72h, 1 µM_Exp1 (experiment 1, 72 h): -9.12% | Growth Inhibition (%) at 72h, 1 µM_Exp2 (experiment 2, 72 h): -56.10% | Growth Inhibition (%) at 72h, 10 µM_Exp1 (experiment 1, 72 h): 71.50% | Growth Inhibition (%) at 72h, 10 µM_Exp2 (experiment 2, 72 h): 83.90%

[Cl-].c1c2c(cc3c1OCO3)-c1cc3ccc4c(c3c[n+]1CC2)OCO4 [Coptisine (chloride)]
Growth Inhibition (%) at 72h, 1 µM_Exp1 (experiment 1, 72 h): 29.53% | Growth Inhibition (%) at 72h, 1 µM_Exp2 (experiment 2, 72 h): 16.08% | Growth Inhibition (%) at 72h, 10 µM_Exp1 (experiment 1, 72 h): 84.96% | Growth Inhibition (%) at 72h, 10 µM_Exp2 (experiment 2, 72 h): 96.73%

COc1cc2c(cc1OC)[C@H]1[C@@H](C)c3ccc(OC)c(OC)c3CN1CC2 [Corydaline]
Growth Inhibition (%) at 72h, 1 µM_Exp1 (experiment 1, 72 h): -15.75% | Growth Inhibition (%) at 72h, 1 µM_Exp2 (experiment 2, 72 h): 2.30% | Growth Inhibition (%) at 72h, 10 µM_Exp1 (experiment 1, 72 h): 79.13% | Growth Inhibition (%) at 72h, 10 µM_Exp2 (experiment 2, 72 h): 87.39%

COc1cc2c(cc1O)C1Cc3ccc(OC)c(O)c3C[N+]1(C)CC2.[Cl-] (centres unmarked) [Cyclanoline (chloride)]
Growth Inhibition (%) at 72h, 1 µM_Exp1 (experiment 1, 72 h): -48.98% | Growth Inhibition (%) at 72h, 1 µM_Exp2 (experiment 2, 72 h): 13.86% | Growth Inhibition (%) at 72h, 10 µM_Exp1 (experiment 1, 72 h): 77.56% | Growth Inhibition (%) at 72h, 10 µM_Exp2 (experiment 2, 72 h): 17.25%

CC(=O)C1=C(O)[C@@H]2[C@H]3c4c[nH]c5cccc(c45)C[C@H]3C(C)(C)N2C1=O [Cyclopiazonic acid]
inhibition at 1 µM [1]: 20.8% | inhibition at 1 µM [2]: 19.9% | inhibition at 10 µM [3]: 100% | inhibition at 10 µM [4]: 100%

COc1cc2c(cc1OC)-c1c(C)c3ccc(OC)c(OC)c3c[n+]1CC2.[Cl-] [Dehydrocorydaline (chloride)]
Growth Inhibition (%) at 72h, 1 µM_Exp1 (experiment 1, 72 h): 13.00% | Growth Inhibition (%) at 72h, 1 µM_Exp2 (experiment 2, 72 h): 31.86% | Growth Inhibition (%) at 72h, 10 µM_Exp1 (experiment 1, 72 h): 95.47% | Growth Inhibition (%) at 72h, 10 µM_Exp2 (experiment 2, 72 h): 88.17%

COc1cc2c(cc1OC)-c1c(C)c3ccc(OC)c(OC)c3c[n+]1CC2.[OH-] [Dehydrocorydaline (hydroxyl)]
Growth Inhibition (%) at 72h, 1 µM_Exp1 (experiment 1, 72 h): 10.19% | Growth Inhibition (%) at 72h, 1 µM_Exp2 (experiment 2, 72 h): -0.13% | Growth Inhibition (%) at 72h, 10 µM_Exp1 (experiment 1, 72 h): 92.43% | Growth Inhibition (%) at 72h, 10 µM_Exp2 (experiment 2, 72 h): 77.86%

COc1cc2c(cc1OC)-c1c(C)c3ccc(OC)c(OC)c3c[n+]1CC2.O=[N+]([O-])[O-] [Dehydrocorydaline (nitrate)]
Growth Inhibition (%) at 72h, 1 µM_Exp1 (experiment 1, 72 h): 27.42% | Growth Inhibition (%) at 72h, 1 µM_Exp2 (experiment 2, 72 h): -14.19% | Growth Inhibition (%) at 72h, 10 µM_Exp1 (experiment 1, 72 h): 82.98% | Growth Inhibition (%) at 72h, 10 µM_Exp2 (experiment 2, 72 h): 66.56%

COc1ccc2cc3[n+](cc2c1OC)CCc1cc(O)c(O)cc1-3.[Cl-] [Demethyleneberberine (chloride)]
Growth Inhibition (%) at 72h, 1 µM_Exp1 (experiment 1, 72 h): -4.24% | Growth Inhibition (%) at 72h, 1 µM_Exp2 (experiment 2, 72 h): 8.25% | Growth Inhibition (%) at 72h, 10 µM_Exp1 (experiment 1, 72 h): 43.2% | Growth Inhibition (%) at 72h, 10 µM_Exp2 (experiment 2, 72 h): 71.18%

COc1cc(CNC(=O)CCCCCCC(C)C)ccc1O [Dihydrocapsaicin]
inhibition at 1 µM [1]: -4.08% | inhibition at 1 µM [2]: 35.3% | inhibition at 10 µM [3]: 92% | inhibition at 10 µM [4]: 71.1%

CCCCCCCCCCCCCc1cc(=O)c2ccccc2n1C [Dihydroevocarpine]
Growth Inhibition (%) at 72h, 1 µM_Exp1 (experiment 1, 72 h): -21.58% | Growth Inhibition (%) at 72h, 1 µM_Exp2 (experiment 2, 72 h): 19.18% | Growth Inhibition (%) at 72h, 10 µM_Exp1 (experiment 1, 72 h): 97.61% | Growth Inhibition (%) at 72h, 10 µM_Exp2 (experiment 2, 72 h): 83.00%

Cc1c2ccncc2c(C)c2c1[nH]c1ccccc12.Cl [Ellipticine (hydrochloride)]
Growth Inhibition (%) at 72h, 1 µM_Exp1 (experiment 1, 72 h): 36.30% | Growth Inhibition (%) at 72h, 1 µM_Exp2 (experiment 2, 72 h): -10.32% | Growth Inhibition (%) at 72h, 10 µM_Exp1 (experiment 1, 72 h): 98.68% | Growth Inhibition (%) at 72h, 10 µM_Exp2 (experiment 2, 72 h): 97.67%

Cl.Cl.O=C(C[C@H]1NCCC[C@@H]1O)Cn1cnc2ccccc2c1=O [Febrifugine (dihydrochloride)]
Growth Inhibition (%) at 72h, 1 µM_Exp1 (experiment 1, 72 h): 74.39% | Growth Inhibition (%) at 72h, 1 µM_Exp2 (experiment 2, 72 h): 25.76% | Growth Inhibition (%) at 72h, 10 µM_Exp1 (experiment 1, 72 h): 97.63% | Growth Inhibition (%) at 72h, 10 µM_Exp2 (experiment 2, 72 h): 97.12%
